Source: PubChem BioAssay AID2060904 (Molecular Pharmacology Branch, DTP, NCI, 2025)
One block for each compound: values may come before it.

System: 349418-098-R-PDC complex spheroid viability
Assay: Anticancer human tumor 349418-098-R-PDC patient-derived lung adenocarcinoma cell line growth inhibition [RAS]
Details: for IC50: curve of first compound; for viability, T/C: stronger effect = lower value
Outline: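 Agents were tested in combination matrices in half-log decrements from a top concentration at or near clinical Cmax (10 microM if undetermined). Targets were multi-cell spheroids of tumour lines plus HUVEC and MSC stromal cells.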

[1] = second compound 0.000949 µM, first compound 0.00316 µM
[2] = second compound 0.000949 µM, first compound 0.01 µM
[3] = second compound 0.000949 µM, first compound 0.0316 µM
[4] = second compound 0.000949 µM, first compound 0.1 µM
[5] = second compound 0.003 µM, first compound 0.00316 µM
[6] = second compound 0.003 µM, first compound 0.01 µM
[7] = second compound 0.003 µM, first compound 0.0316 µM
[8] = second compound 0.003 µM, first compound 0.1 µM
[9] = second compound 0.00949 µM, first compound 0.00316 µM
[10] = second compound 0.00949 µM, first compound 0.01 µM
[11] = second compound 0.00949 µM, first compound 0.0316 µM
[12] = second compound 0.00949 µM, first compound 0.1 µM
[13] = second compound 0.03 µM, first compound 0.00316 µM
[14] = second compound 0.03 µM, first compound 0.01 µM
[15] = second compound 0.03 µM, first compound 0.0316 µM
[16] = second compound 0.03 µM, first compound 0.1 µM
[17] = second compound 0.0949 µM, first compound 0.00316 µM
[18] = second compound 0.0949 µM, first compound 0.01 µM
[19] = second compound 0.0949 µM, first compound 0.0316 µM
[20] = second compound 0.0949 µM, first compound 0.1 µM
[21] = second compound 0.3 µM, first compound 0.00316 µM
[22] = second compound 0.3 µM, first compound 0.01 µM
[23] = second compound 0.3 µM, first compound 0.0316 µM
[24] = second compound 0.3 µM, first compound 0.1 µM
[25] = second compound 0.000949 µM, first compound 0.316 µM
[26] = second compound 0.000949 µM, first compound 1 µM
[27] = second compound 0.000949 µM, first compound 3.16 µM
[28] = second compound 0.000949 µM, first compound 10 µM
[29] = second compound 0.003 µM, first compound 0.316 µM
[30] = second compound 0.003 µM, first compound 1 µM
[31] = second compound 0.003 µM, first compound 3.16 µM
[32] = second compound 0.003 µM, first compound 10 µM
[33] = second compound 0.00949 µM, first compound 0.316 µM
[34] = second compound 0.00949 µM, first compound 1 µM
[35] = second compound 0.00949 µM, first compound 3.16 µM
[36] = second compound 0.00949 µM, first compound 10 µM
[37] = second compound 0.03 µM, first compound 0.316 µM
[38] = second compound 0.03 µM, first compound 1 µM
[39] = second compound 0.03 µM, first compound 3.16 µM
[40] = second compound 0.03 µM, first compound 10 µM
[41] = second compound 0.0949 µM, first compound 0.316 µM
[42] = second compound 0.0949 µM, first compound 1 µM
[43] = second compound 0.0949 µM, first compound 3.16 µM
[44] = second compound 0.0949 µM, first compound 10 µM
[45] = second compound 0.3 µM, first compound 0.316 µM
[46] = second compound 0.3 µM, first compound 1 µM
[47] = second compound 0.3 µM, first compound 3.16 µM
[48] = second compound 0.3 µM, first compound 10 µM
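Note: spheroids exposed to compound for seven days before viability readout.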

IC50 (second compound 0.000949 µM): 0.0023 µM
IC50 (second compound 0.003 µM): 0.00306 µM
IC50 (second compound 0.00949 µM): 0.00279 µM
IC50 (second compound 0.03 µM): 0.00357 µM
IC50 (second compound 0.0949 µM): 0.00199 µM
IC50 (second compound 0.3 µM): 0.00349 µM
SMILES: CC(C)n1nc(-c2ccc3oc(N)nc3c2)c2c(N)ncnc21 + CCn1c(-c2cc(N3CCN(C)CC3)cnc2C(C)OC)c2c3cc(ccc31)-c1csc(n1)CC(NC(=O)C1CC1C)C(=O)N1CCCC(N1)C(=O)OCC(C)(C)C2
viability, T/C (second compound 0.000949 µM, first compound 0.000316 µM): 97.9%
viability, T/C (second compound 0.000949 µM, first compound 0.001 µM): 75.8%
viability, T/C [1]: 37.8%
viability, T/C [2]: 22.4%
viability, T/C [3]: 8.76%
viability, T/C [4]: 7.18%
viability, T/C (second compound 0.003 µM, first compound 0.000316 µM): 87%
viability, T/C (second compound 0.003 µM, first compound 0.001 µM): 66.9%
viability, T/C [5]: 54.9%
viability, T/C [6]: 18.6%
viability, T/C [7]: 7.75%
viability, T/C [8]: 6.04%
viability, T/C (second compound 0.00949 µM, first compound 0.000316 µM): 106%
viability, T/C (second compound 0.00949 µM, first compound 0.001 µM): 84.4%
viability, T/C [9]: 46.3%
viability, T/C [10]: 16.6%
viability, T/C [11]: 7.24%
viability, T/C [12]: 5.27%
viability, T/C (second compound 0.03 µM, first compound 0.000316 µM): 100%
viability, T/C (second compound 0.03 µM, first compound 0.001 µM): 98.3%
viability, T/C [13]: 54.4%
viability, T/C [14]: 11.8%
viability, T/C [15]: 8.66%
viability, T/C [16]: 6.68%
viability, T/C (second compound 0.0949 µM, first compound 0.000316 µM): 111%
viability, T/C (second compound 0.0949 µM, first compound 0.001 µM): 67.4%
viability, T/C [17]: 39.3%
viability, T/C [18]: 18.7%
viability, T/C [19]: 7.91%
viability, T/C [20]: 5.64%
viability, T/C (second compound 0.3 µM, first compound 0.000316 µM): 94.7%
viability, T/C (second compound 0.3 µM, first compound 0.001 µM): 87.2%
viability, T/C [21]: 53.6%
viability, T/C [22]: 14.6%
viability, T/C [23]: 8.69%
viability, T/C [24]: 6.51%

IC50 (second compound 0.000949 µM): 0.0636 µM
IC50 (second compound 0.003 µM): 0.0731 µM
IC50 (second compound 0.00949 µM): 0.0569 µM
IC50 (second compound 0.03 µM): 0.0843 µM
IC50 (second compound 0.0949 µM): 0.0836 µM
IC50 (second compound 0.3 µM): 0.0781 µM
SMILES: CC1(O)CCCC1n1c(=O)c(C(F)F)cc2cnc(NC3CCN(S(C)(=O)=O)CC3)nc21 (stereo not drawn) + CCn1c(-c2cc(N3CCN(C)CC3)cnc2C(C)OC)c2c3cc(ccc31)-c1csc(n1)CC(NC(=O)C1CC1C)C(=O)N1CCCC(N1)C(=O)OCC(C)(C)C2
viability, T/C [3]: 71.3%
viability, T/C [4]: 34.3%
viability, T/C [25]: 21.8%
viability, T/C [26]: 21.3%
viability, T/C [27]: 22.5%
viability, T/C [28]: 3.27%
viability, T/C [7]: 73.1%
viability, T/C [8]: 38.1%
viability, T/C [29]: 25.3%
viability, T/C [30]: 20.1%
viability, T/C [31]: 21.5%
viability, T/C [32]: 2.54%
viability, T/C [11]: 60.6%
viability, T/C [12]: 41.4%
viability, T/C [33]: 22%
viability, T/C [34]: 23%
viability, T/C [35]: 19.6%
viability, T/C [36]: 2.74%
viability, T/C [15]: 70.8%
viability, T/C [16]: 48.1%
viability, T/C [37]: 23.6%
viability, T/C [38]: 22.9%
viability, T/C [39]: 19.2%
viability, T/C [40]: 2.55%
viability, T/C [19]: 83.8%
viability, T/C [20]: 42%
viability, T/C [41]: 23.3%
viability, T/C [42]: 23.9%
viability, T/C [43]: 21.4%
viability, T/C [44]: 2.75%
viability, T/C [23]: 78.2%
viability, T/C [24]: 40.7%
viability, T/C [45]: 22.5%
viability, T/C [46]: 22.3%
viability, T/C [47]: 20.5%
viability, T/C [48]: 2.63%

IC50 (second compound 0.000949 µM): 0.0193 µM
IC50 (second compound 0.003 µM): 0.0164 µM
IC50 (second compound 0.00949 µM): 0.0171 µM
IC50 (second compound 0.03 µM): 0.0218 µM
IC50 (second compound 0.0949 µM): 0.0287 µM
IC50 (second compound 0.3 µM): 0.0206 µM
SMILES: CCN1CCN(Cc2ccc(Nc3ncc(F)c(-c4cc(F)c5nc(C)n(C(C)C)c5c4)n3)nc2)CC1 + CCn1c(-c2cc(N3CCN(C)CC3)cnc2C(C)OC)c2c3cc(ccc31)-c1csc(n1)CC(NC(=O)C1CC1C)C(=O)N1CCCC(N1)C(=O)OCC(C)(C)C2
viability, T/C [1]: 96.6%
viability, T/C [2]: 68.5%
viability, T/C [3]: 33.4%
viability, T/C [4]: 28.7%
viability, T/C [25]: 20.4%
viability, T/C [26]: 15.3%
viability, T/C [5]: 93.4%
viability, T/C [6]: 59.7%
viability, T/C [7]: 38.5%
viability, T/C [8]: 19.3%
viability, T/C [29]: 20.3%
viability, T/C [30]: 14%
viability, T/C [9]: 103%
viability, T/C [10]: 63.4%
viability, T/C [11]: 35.3%
viability, T/C [12]: 18.5%
viability, T/C [33]: 20%
viability, T/C [34]: 12.7%
viability, T/C [13]: 104%
viability, T/C [14]: 85.5%
viability, T/C [15]: 33%
viability, T/C [16]: 19.5%
viability, T/C [37]: 23.5%
viability, T/C [38]: 15%
viability, T/C [17]: 92.7%
viability, T/C [18]: 54.4%
viability, T/C [19]: 58.4%
viability, T/C [20]: 33.1%
viability, T/C [41]: 23.1%
viability, T/C [42]: 12.8%
viability, T/C [21]: 88.1%
viability, T/C [22]: 60.1%
viability, T/C [23]: 42.8%
viability, T/C [24]: 32.3%
viability, T/C [45]: 22%
viability, T/C [46]: 14.6%

IC50 (second compound 0.000949 µM): 1.34 µM
IC50 (second compound 0.003 µM): 1.12 µM
IC50 (second compound 0.00949 µM): 0.976 µM
IC50 (second compound 0.03 µM): 0.806 µM
IC50 (second compound 0.0949 µM): 0.687 µM
IC50 (second compound 0.3 µM): 0.915 µM
SMILES: C[C@@H](NC(=O)c1ncnc(N)c1Cl)c1ncc(C(=O)Nc2cc(C(F)(F)F)c(Cl)cn2)s1 + CCn1c(-c2cc(N3CCN(C)CC3)cnc2C(C)OC)c2c3cc(ccc31)-c1csc(n1)CC(NC(=O)C1CC1C)C(=O)N1CCCC(N1)C(=O)OCC(C)(C)C2
viability, T/C [3]: 105%
viability, T/C [4]: 85.8%
viability, T/C [25]: 77.9%
viability, T/C [26]: 58.2%
viability, T/C [27]: 30.6%
viability, T/C [28]: 17.3%
viability, T/C [7]: 102%
viability, T/C [8]: 93.6%
viability, T/C [29]: 72.5%
viability, T/C [30]: 54.5%
viability, T/C [31]: 29.7%
viability, T/C [32]: 18.7%
viability, T/C [11]: 106%
viability, T/C [12]: 90.4%
viability, T/C [33]: 81.1%
viability, T/C [34]: 49%
viability, T/C [35]: 23.2%
viability, T/C [36]: 12.5%
viability, T/C [15]: 103%
viability, T/C [16]: 88%
viability, T/C [37]: 87.4%
viability, T/C [38]: 40%
viability, T/C [39]: 23.1%
viability, T/C [40]: 11.4%
viability, T/C [19]: 102%
viability, T/C [20]: 89.6%
viability, T/C [41]: 79.3%
viability, T/C [42]: 35%
viability, T/C [43]: 20.2%
viability, T/C [44]: 11.8%
viability, T/C [23]: 104%
viability, T/C [24]: 93.2%
viability, T/C [45]: 69.9%
viability, T/C [46]: 51.8%
viability, T/C [47]: 23.2%
viability, T/C [48]: 12.5%
